Test results taken from patent publication US20220289728A1, “MODULATORS OF TREX1” (Constellation Pharmaceuticals, Inc., priority 2019, published 2022).

Key:
full length human TREX1 = target: T1, full length human TREX1 (Homo sapiens, UniProt Q9NSU2); assay: TREX1 Biochemical Assay (fluorescence, dsDNA substrate degradation); conditions: 150 pM TREX1, 60 nM dsDNA substrate, 25 minutes at room temperature
T1 construct: N-terminally His-Tev tagged full length human TREX1; His-TEV (His tag with TEV site) (N); made in house; host or cells: E. coli
T1 sequence (Q9NSU2 1-314): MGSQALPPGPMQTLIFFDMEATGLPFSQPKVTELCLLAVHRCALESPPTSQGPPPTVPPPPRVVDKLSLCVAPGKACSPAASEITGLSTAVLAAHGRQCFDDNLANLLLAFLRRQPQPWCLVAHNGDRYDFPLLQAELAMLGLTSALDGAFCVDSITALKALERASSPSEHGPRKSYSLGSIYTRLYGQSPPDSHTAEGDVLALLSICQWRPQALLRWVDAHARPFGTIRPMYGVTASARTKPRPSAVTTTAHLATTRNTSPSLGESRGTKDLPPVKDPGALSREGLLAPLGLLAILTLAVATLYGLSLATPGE
Description: Degradation of the dsDNA liberates free fluorophore to produce a fluorescent signal. Specifically, 7.5 μL of N-terminally His-Tev tagged full length human TREX1 (expressed in E. coli and purified in house) in reaction buffer (50 mM Tris (pH 7.4), 150 mM NaCl, 2 mM DTT, 0.1 mg/mL BSA, 0.01% (v/v) Tween-20 and 100 mM MgCl2) was added to a 384-well Black ProxiPlate Plus (Perkin Elmer) which already contained compound (150 nL) at varying concentrations as a 10 point dose-response in DMSO. To this was added 7.5 μL of dsDNA substrate (Strand A: 5′ TEX615/GCT AGG CAG 3′; Strand B: 5′ CTG CCT AGC/IAbRQSp (Integrated DNA Technologies)) in reaction buffer. Final concentrations were 150 pM TREX1, 60 nM dsDNA substrate in reaction buffer with 1.0% DMSO (v/v). After 25 minutes at room temperature, reactions were quenched by the addition of 5 μL of stop buffer (same as reaction buffer plus 200 mM EDTA). Final concentrations in the quenched reaction were 112.5 pM TREX1, 45 nM DNA and 50 mM EDTA in a volume of 20 μL. After a 5-minute incubation at room temperature, plates were read in a laser sourced Envision (Perkin-Elmer), measuring fluorescence at 615 nm following excitation w/570 nm light. IC50 values were calculated by comparing the measured fluorescence at 615 nm ratio relative to control wells pre-quenched w/stop buffer (100% inhibition) and no inhibitor (0% inhibition) controls as using non-linear least square four parameter fits and either Genedata or GraphPad Prism (GraphPad Software, Inc.).

[1] = target: T2, human TREX2 (residues M44-A279) (Homo sapiens, UniProt Q9BQ50); assay: TREX2 Biochemical Assay (fluorescence, dsDNA substrate degradation); conditions: 2.5 nM TREX2, 60 nM dsDNA substrate, 25 minutes at room temperature
T2 construct: human TREX2 (residues M44-A279, expressed in E. coli); His-TEV (His tag with TEV site) (N); made in house; host or cells: E. coli
T2 sequence (Q9BQ50 44-279 isoform Q9BQ50-1): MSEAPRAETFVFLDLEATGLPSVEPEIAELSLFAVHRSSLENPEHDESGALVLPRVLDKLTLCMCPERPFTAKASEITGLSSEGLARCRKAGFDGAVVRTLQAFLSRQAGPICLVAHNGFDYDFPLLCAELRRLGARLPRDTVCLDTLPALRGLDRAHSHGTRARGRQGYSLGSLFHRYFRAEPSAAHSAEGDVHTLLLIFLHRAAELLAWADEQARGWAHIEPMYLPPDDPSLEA
Description: Degradation of the dsDNA liberates free fluorophore to produce a fluorescent signal. Specifically, 7.5 μL of N-terminally His-Tev tagged human TREX2 (residues M44-A279, expressed in E. coli and purified in house) in reaction buffer (50 mM Tris (pH 7.4), 150 mM NaCl, 2 mM DTT, 0.1 mg/mL BSA, 0.01% (v/v) Tween-20 and 100 mM MgCl2) was added to a 384-well Black ProxiPlate Plus (Perkin Elmer) which already contained compound (150 nL) at varying concentrations as a 10 point dose-response in DMSO. To this was added 7.5 μL of dsDNA substrate (Strand A: 5′ TEX615/GCT AGG CAG 3′; Strand B: 5′ CTG CCT AGC/IAbRQSp (IDT)) in reaction buffer. Final concentrations were 2.5 nM TREX2, 60 nM dsDNA substrate in reaction buffer with 1.0% DMSO (v/v). After 25 minutes at room temperature, reactions were quenched by the addition of 5 μL of stop buffer (same as reaction buffer plus 200 mM EDTA). Final concentrations in the quenched reaction mixture were […] TREX2, 45 nM DNA and 50 mM EDTA in a volume of 20 μL. After a 5-minute incubation at room temperature, plates were read in a laser sourced Envision (Perkin-Elmer), measuring fluorescence at 615 nm following excitation w/570 nm light. IC50 values were calculated by comparing the measured fluorescence at 615 nm ratio relative to control wells pre-quenched w/stop buffer (100% inhibition) and no inhibitor (0% inhibition) controls as using non-linear least square four parameter fits and either Genedata or GraphPad Prism (GraphPad Software, Inc.).

HCT116 dual cells = assay: HCT116 Cell Assay (Lucia luciferase reporter of Type I interferon induction); assay type: cell-based, human; conditions: pBR322/BstNI DNA transfection, Lucia luciferase at 48 h, relative to 10 uM compound 39
Excerpt: HCT116 dual cells (Invivogen, San Diego, Calif., USA) are derived from the human HCT116 colorectal carcinoma cell line. Cells have been selected for the stable integration of SEAP and Luciferase reporter genes, which expression is under the control of 5 tandem response elements for NF-KB/AP1 and STAT1/STAT2, respectively. The cell line was used to monitor Type I interferon induction and subsequent signaling by measuring the activity of the Lucia luciferase secreted in the culture medium.
HCT116 cells were plated in 96-well plate(s) at 40,000 cells/well in 100 uL DMEM supplemented with 10% FBS and 25 mM Hepes (pH 7.2-7.5). After overnight settling, cells were treated with TREX1i for 4 h (maximum DMSO fraction was 0.1%) before 1.25 ug/mL pBR322/BstNI restriction digest (New England Biolabs, Ipswich, Mass., USA) was transfected with Lipofectamine LTX (ThermoFisher, Grand Island, N.Y., USA), according to product manual recommendations. Briefly, Lipofectamine LTX (0.4 uL/well) was diluted in OptiMEM (5 uL/well). pBR322/BstNI (100 ng/well) was diluted in OptiMEM (5 uL/well) before Plus reagent (0.1 uL/100 ng DNA) was added. After 5 min incubation at room temperature, the DNA mixture was mixed dropwise with the diluted Lipofectamine LTX. After an additional 10 min incubation, the transfection mix (10 uL/well) was added to the cells. Cells were maintained at 37° C. for 48 h before monitoring the Lucia Luciferase activity from the cell culture medium. EC50 values were calculated by comparing the measured luminescence relative to 10 uM compound 39 (100% inhibition) and no inhibitor (0% inhibition) controls using non-linear least-squares four parameter fits in either Genedata Screener or GraphPad Prism (GraphPad Software, Inc.).

[2] = Homo sapiens, HCT-116, 4 h pre-treatment

CC(c1c(Cl)cccc1Cl)N(C)c1nc(C(=O)Nc2cnoc2)c(O)c(=O)n1C (single isomer, unassigned) [Example 71]
IC50 (full length human TREX1): < 0.1 µM | IC50 [1]: < 1 µM | EC50 (HCT116 dual cells; 4 h pre-treatment): < 1 µM

CN(c1nc(C(=O)Nc2cnoc2)c(O)c(=O)n1C)C(c1ccccc1Cl)C1CC1 (single isomer, unassigned) [Example 68]
IC50 (full length human TREX1): < 0.1 µM | IC50 [1]: < 1 µM | EC50 (HCT116 dual cells; [2]): < 1 µM

CN(Cc1ccccn1)c1nc(C(=O)Nc2cnoc2)c(O)c(=O)n1C [Example 22]
IC50 (full length human TREX1): 0.1 to 1 µM | IC50 [1]: 1 to 10 µM | EC50 (HCT116 dual cells; [2]): 10 to 100 µM

CN(c1nc(C(=O)Nc2cnoc2)c(O)c(=O)n1C)C(c1ccccc1)C1CCOCC1 (single isomer, unassigned) [Example 46]
IC50 (full length human TREX1): < 0.1 µM | IC50 [1]: 1 to 10 µM | EC50 (HCT116 dual cells; 4 h pre-treatment): 1 to 10 µM

CN(c1nc(C(=O)Nc2cnoc2)c(O)c(=O)n1C)C(c1ccccc1Cl)C1CC1 (single isomer, unassigned) [Example 69]
IC50 (full length human TREX1): < 0.1 µM | IC50 [1]: < 1 µM | EC50 (HCT116 dual cells; 4 h pre-treatment): < 1 µM

CN(Cc1ccc(Cl)c(Cl)c1)c1nc(C(=O)Nc2cnoc2)c(O)c(=O)n1C [Example 7]
IC50 (full length human TREX1): < 0.1 µM | IC50 [1]: 1 to 10 µM | EC50 (HCT116 dual cells; [2]): 1 to 10 µM

CN(Cc1ccc2ccccc2c1)c1nc(C(=O)Nc2cnoc2)c(O)c(=O)n1C [Example 14]
IC50 (full length human TREX1): < 0.1 µM | IC50 [1]: 1 to 10 µM | EC50 (HCT116 dual cells; [2]): 10 to 100 µM

CN(c1nc(C(=O)Nc2cnoc2)c(O)c(=O)n1C)C(c1ccccc1)c1cc(F)ccc1Cl (single isomer, unassigned) [Example 87]
IC50 (full length human TREX1): < 0.1 µM | IC50 [1]: < 1 µM | EC50 (HCT116 dual cells; [2]): < 1 µM

CN(c1nc(C(=O)Nc2cnoc2)c(O)c(=O)n1C)C(c1cccc(C#N)c1)c1ccccc1Cl (single isomer, unassigned) [Example 96]
IC50 (full length human TREX1): < 0.1 µM | IC50 [1]: < 1 µM | EC50 (HCT116 dual cells; 4 h pre-treatment): 1 to 10 µM

Cc1ccc(C(c2ccccc2)N(C)c2nc(C(=O)Nc3cnoc3)c(O)c(=O)n2C)cn1 (single isomer, unassigned) [Example 43]
IC50 (full length human TREX1): < 0.1 µM | IC50 [1]: < 1 µM | EC50 (HCT116 dual cells; [2]): 1 to 10 µM

CN(c1nc(C(=O)Nc2cnoc2)c(O)c(=O)n1C)C(c1ccccc1)c1cccc(C#N)c1 (single isomer, unassigned) [Example 50]
IC50 (full length human TREX1): < 0.1 µM | IC50 [1]: < 1 µM | EC50 (HCT116 dual cells; [2]): < 1 µM

Cc1cccnc1C(c1ccccc1)N(C)c1nc(C(=O)Nc2cnoc2)c(O)c(=O)n1C (single isomer, unassigned) [Example 58]
IC50 (full length human TREX1): < 0.1 µM | IC50 [1]: 1 to 10 µM | EC50 (HCT116 dual cells; [2]): 1 to 10 µM

C[C@@H](c1ccccc1)N(C)c1nc(C(=O)Nc2cnoc2)c(O)c(=O)n1C [Example 28]
IC50 (full length human TREX1): < 0.1 µM | IC50 [1]: 1 to 10 µM | EC50 (HCT116 dual cells; [2]): 1 to 10 µM

CN(c1nc(C(=O)Nc2cnoc2)c(O)c(=O)n1C)C(c1ccccn1)c1ccccc1Cl (single isomer, unassigned) [Example 56]
IC50 (full length human TREX1): < 0.1 µM | IC50 [1]: < 1 µM | EC50 (HCT116 dual cells; [2]): < 1 µM

Cc1cccc(Cl)c1C(c1ccccn1)N(C)c1nc(C(=O)Nc2cnoc2)c(O)c(=O)n1C (single isomer, unassigned) [Example 63]
IC50 (full length human TREX1): < 0.1 µM | IC50 [1]: < 1 µM | EC50 (HCT116 dual cells; 4 h pre-treatment): 1 to 10 µM

CN(Cc1cc(Cl)ccc1Cl)c1nc(C(=O)Nc2cnoc2)c(O)c(=O)n1C [Example 5]
IC50 (full length human TREX1): < 0.1 µM | IC50 [1]: 1 to 10 µM | EC50 (HCT116 dual cells; [2]): 1 to 10 µM

C[C@H](c1ccccc1)N(C)c1nc(C(=O)Nc2cnoc2)c(O)c(=O)n1C [Example 27]
IC50 (full length human TREX1): < 0.1 µM | IC50 [1]: < 1 µM | EC50 (HCT116 dual cells; [2]): 1 to 10 µM

CN(C)C(=O)c1ccc(C(c2ccccc2)N(C)c2nc(C(=O)Nc3cnoc3)c(O)c(=O)n2C)c(Cl)c1 (single isomer, unassigned) [Example 94]
IC50 (full length human TREX1): < 0.1 µM | IC50 [1]: < 1 µM | EC50 (HCT116 dual cells; 4 h pre-treatment): < 1 µM

Cc1c(-c2ccncc2CN(C)c2nc(C(=O)Nc3cnoc3)c(O)c(=O)n2C)cnn1C [Example 35]
IC50 (full length human TREX1): < 0.1 µM | IC50 [1]: 1 to 10 µM | EC50 (HCT116 dual cells; [2]): 10 to 100 µM

CN(Cc1ccccc1-c1ccccc1)c1nc(C(=O)Nc2cnoc2)c(O)c(=O)n1C [Example 18]
IC50 (full length human TREX1): < 0.1 µM | IC50 [1]: 1 to 10 µM | EC50 (HCT116 dual cells; [2]): 10 to 100 µM

CN(c1nc(C(=O)Nc2cnoc2)c(O)c(=O)n1C)C(c1ccccc1)c1cc(F)ccc1Cl (single isomer, unassigned) [Example 88]
IC50 (full length human TREX1): < 0.1 µM | IC50 [1]: < 1 µM | EC50 (HCT116 dual cells; 4 h pre-treatment): < 1 µM

CN(c1nc(C(=O)Nc2cnoc2)c(O)c(=O)n1C)C(c1ccccc1)c1ccccc1 [Example 30]
IC50 (full length human TREX1): < 0.1 µM | IC50 [1]: < 1 µM | EC50 (HCT116 dual cells; [2]): < 1 µM

CN(c1nc(C(=O)Nc2cnoc2)c(O)c(=O)n1C)C(c1ccccn1)c1c(Cl)cccc1Cl (single isomer, unassigned) [Example 60]
IC50 (full length human TREX1): < 0.1 µM | IC50 [1]: 1 to 10 µM | EC50 (HCT116 dual cells; [2]): 1 to 10 µM

Cn1c(N(CCOc2ccccc2)Cc2ccccc2)nc(C(=O)Nc2cnoc2)c(O)c1=O [Example 16]
IC50 (full length human TREX1): < 0.1 µM | IC50 [1]: < 1 µM | EC50 (HCT116 dual cells; [2]): 10 to 100 µM

CN(Cc1c(Cl)cccc1Cl)c1nc(C(=O)Nc2cnoc2)c(O)c(=O)n1C [Example 4]
IC50 (full length human TREX1): < 0.1 µM | IC50 [1]: < 1 µM | EC50 (HCT116 dual cells; [2]): 1 to 10 µM

CN(Cc1ccc(Cl)cc1)c1nc(C(=O)Nc2cnoc2)c(O)c(=O)n1C [Example 9]
IC50 (full length human TREX1): < 0.1 µM | IC50 [1]: 10 to 100 µM | EC50 (HCT116 dual cells; [2]): 10 to 100 µM
